Assays:
Cholinesterase = Cholinesterase (Homo sapiens, UniProt P06276); experiment: Inhibition of BuChE (unknown origin)
[1] = target: T1, Acetylcholinesterase (Bos taurus) (UniProt P23795); experiment: Displacement of propidium iodide from bovine erythrocyte AchE at 0.3 uM incubated for 6 hrs followed by addition of propidium iodide and measured after 15 mins by thioflavin T-fluorescence assay
T1 sequence (whole entry): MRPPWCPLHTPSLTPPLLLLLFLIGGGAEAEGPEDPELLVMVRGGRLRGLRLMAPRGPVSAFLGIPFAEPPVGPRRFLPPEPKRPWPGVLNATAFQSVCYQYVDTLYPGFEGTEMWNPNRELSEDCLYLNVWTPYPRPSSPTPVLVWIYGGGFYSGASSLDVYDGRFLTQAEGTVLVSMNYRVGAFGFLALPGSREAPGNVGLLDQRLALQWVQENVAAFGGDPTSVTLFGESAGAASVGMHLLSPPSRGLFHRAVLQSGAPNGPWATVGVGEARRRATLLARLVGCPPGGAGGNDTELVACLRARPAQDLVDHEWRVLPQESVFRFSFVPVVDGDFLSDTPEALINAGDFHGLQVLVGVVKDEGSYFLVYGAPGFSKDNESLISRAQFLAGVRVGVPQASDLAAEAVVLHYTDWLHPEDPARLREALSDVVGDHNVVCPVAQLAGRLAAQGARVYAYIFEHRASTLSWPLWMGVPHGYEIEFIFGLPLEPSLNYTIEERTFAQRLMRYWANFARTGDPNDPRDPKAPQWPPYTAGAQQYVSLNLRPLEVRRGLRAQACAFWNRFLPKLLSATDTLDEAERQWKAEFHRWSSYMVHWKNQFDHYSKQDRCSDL

[2] = target: T1, Acetylcholinesterase (Bos taurus); experiment: Displacement of propidium iodide from bovine erythrocyte AchE at 1 uM incubated for 6 hrs followed by addition of propidium iodide and measured after 15 mins by thioflavin T-fluorescence assay
[3] = target: T1, Acetylcholinesterase (Bos taurus); experiment: Displacement of propidium iodide from bovine erythrocyte AchE at 3 uM incubated for 6 hrs followed by addition of propidium iodide and measured after 15 mins by thioflavin T-fluorescence assay
Acetylcholinesterase [4] = target: T2, Acetylcholinesterase (Rattus norvegicus, UniProt P37136); experiment: Inhibition of rat cortex AchE using acetylthiocholine iodide as substrate by Ellman's method
T2 sequence (P37136 whole entry): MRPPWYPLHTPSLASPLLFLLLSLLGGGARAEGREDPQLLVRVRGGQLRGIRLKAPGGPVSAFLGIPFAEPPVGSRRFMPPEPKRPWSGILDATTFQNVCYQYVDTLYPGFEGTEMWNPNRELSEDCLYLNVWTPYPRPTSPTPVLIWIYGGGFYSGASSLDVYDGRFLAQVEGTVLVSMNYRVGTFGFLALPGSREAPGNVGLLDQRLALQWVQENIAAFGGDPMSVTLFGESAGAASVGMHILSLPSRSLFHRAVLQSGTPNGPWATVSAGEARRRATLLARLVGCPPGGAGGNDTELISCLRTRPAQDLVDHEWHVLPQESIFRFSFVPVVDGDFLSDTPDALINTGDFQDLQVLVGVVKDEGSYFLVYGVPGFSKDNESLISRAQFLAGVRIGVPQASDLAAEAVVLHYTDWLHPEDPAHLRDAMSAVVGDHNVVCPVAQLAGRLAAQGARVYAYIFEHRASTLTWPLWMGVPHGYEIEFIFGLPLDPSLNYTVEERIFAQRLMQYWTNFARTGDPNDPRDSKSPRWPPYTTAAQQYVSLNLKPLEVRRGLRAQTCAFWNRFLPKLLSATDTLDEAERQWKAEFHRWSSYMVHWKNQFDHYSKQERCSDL

[5] = Selectivity index, ratio of IC50 for human serum BChE to IC50 for rat cortex AchE
Acetylcholinesterase [6] = target: T3, Acetylcholinesterase (Bos taurus, UniProt P23795); experiment: Inhibition of bovine erythrocyte AchE using acetylthiocholine as substrate by Ellman's method
T3 sequence (P23795 whole entry): T1 sequence (whole entry)

Acetylcholinesterase [7] = target: Acetylcholinesterase (Homo sapiens, UniProt P22303); experiment: Inhibition of human AchE-induced amyloid beta (1 to 40) aggregation after 48 hrs by thioflavin T fluorescence spectroscopic method
Sequence of Acetylcholinesterase (Homo sapiens, UniProt P22303) (P22303 whole entry): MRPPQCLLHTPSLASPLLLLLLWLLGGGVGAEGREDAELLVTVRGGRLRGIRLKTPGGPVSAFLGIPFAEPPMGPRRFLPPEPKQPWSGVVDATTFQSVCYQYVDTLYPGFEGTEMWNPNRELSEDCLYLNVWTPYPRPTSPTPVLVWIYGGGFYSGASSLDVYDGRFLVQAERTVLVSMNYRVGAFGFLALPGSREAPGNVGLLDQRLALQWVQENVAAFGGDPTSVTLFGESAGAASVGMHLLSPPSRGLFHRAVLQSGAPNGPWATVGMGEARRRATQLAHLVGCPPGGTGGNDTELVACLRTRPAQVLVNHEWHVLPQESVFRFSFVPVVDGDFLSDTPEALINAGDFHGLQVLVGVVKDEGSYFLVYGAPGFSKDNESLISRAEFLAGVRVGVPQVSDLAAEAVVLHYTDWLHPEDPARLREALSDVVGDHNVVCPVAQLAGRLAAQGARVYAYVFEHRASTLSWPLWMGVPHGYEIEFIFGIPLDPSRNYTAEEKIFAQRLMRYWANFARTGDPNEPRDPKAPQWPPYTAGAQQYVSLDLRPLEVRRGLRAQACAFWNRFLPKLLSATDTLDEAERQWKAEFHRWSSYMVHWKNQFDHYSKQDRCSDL

Sequence of Cholinesterase (P06276 whole entry): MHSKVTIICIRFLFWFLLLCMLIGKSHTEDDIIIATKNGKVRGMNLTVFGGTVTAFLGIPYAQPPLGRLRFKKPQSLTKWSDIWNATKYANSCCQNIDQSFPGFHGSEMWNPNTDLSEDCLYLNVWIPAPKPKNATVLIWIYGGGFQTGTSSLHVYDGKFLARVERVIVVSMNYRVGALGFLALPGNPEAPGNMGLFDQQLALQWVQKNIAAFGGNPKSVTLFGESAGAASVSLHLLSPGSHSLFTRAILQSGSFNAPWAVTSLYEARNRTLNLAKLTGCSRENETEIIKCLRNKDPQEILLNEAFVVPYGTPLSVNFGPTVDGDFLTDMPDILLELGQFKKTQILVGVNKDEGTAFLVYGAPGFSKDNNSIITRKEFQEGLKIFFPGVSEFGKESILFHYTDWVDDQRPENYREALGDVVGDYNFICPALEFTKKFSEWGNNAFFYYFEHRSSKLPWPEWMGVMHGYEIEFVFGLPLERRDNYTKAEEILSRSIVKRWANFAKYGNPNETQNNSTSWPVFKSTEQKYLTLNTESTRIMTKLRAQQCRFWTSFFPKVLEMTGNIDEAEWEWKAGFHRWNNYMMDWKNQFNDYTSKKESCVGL

**Q.** Which IC50 (Cholinesterase) does the source give for `Cc1c(C)c2c(c(C)c1O)CCC(C)(C(=O)NCCCCCCCCNc1c3c(nc4cc(Cl)ccc14)CCCC3)O2` (stereo not given) here?
**A.** The IC50 was 54000 pM.

**Q.** What does the source list for `O=C(CCCCCCNc1c2c(nc3cc(Cl)ccc13)CCCC2)NCCc1c[nH]c2ccccc12`?
**A.** inhibition [1]: 42%; inhibition [2]: 34%; inhibition [3]: 35%

**Q.** For `Clc1ccc2c(NCCCCCCCCNc3c4c(nc5ccccc35)CCCC4)c3c(nc2c1)CCCC3`, which IC50 (Acetylcholinesterase [4]) is on record?
**A.** Its IC50 is 70 pM.

**Q.** What about the Ratio IC50 [5] of the same compound?
**A.** Its Ratio IC50 is 371.

**Q.** With `Clc1ccc2c(NCCCCCCCCCNc3c4c(nc5c3CCCC5)CCCC4)c3c(nc2c1)CCCC3` as the compound, how does the IC50 (Acetylcholinesterase [4]) read?
**A.** The IC50 was 300 pM.

**Q.** What about the Ratio IC50 [5] of the same compound?
**A.** The Ratio IC50 was 647.

**Q.** With `c1ccc2c(NCCCCCCCCNc3c4c(nc5c3CCCC5)CCCC4)c3c(nc2c1)CCCC3` as the compound, how does the IC50 (Acetylcholinesterase [4]) read?
**A.** The IC50 was 200 pM.

**Q.** And the Ratio IC50 [5]?
**A.** Its Ratio IC50 is 221.

**Q.** Which inhibition [1] does the source give for `O=C(CCCCCNc1c2c(nc3ccccc13)CCCC2)NCCc1c[nH]c2ccccc12` here?
**A.** The inhibition was 42%.

**Q.** What about the inhibition [2] of the same compound?
**A.** Its inhibition is 34%.

**Q.** What about the IC50 (Acetylcholinesterase [6]) of the same compound?
**A.** Its IC50 is 1000 pM.

**Q.** And the inhibition [3]?
**A.** Its inhibition is 35%.

**Q.** With `O=C(CCCC1CCSS1)NCCCNc1c2c(nc3cc(Cl)ccc13)CCCC2` (stereo not given) as the compound, how does the IC50 (Acetylcholinesterase [7]) read?
**A.** The IC50 was 253000 pM.

From ChEMBL document CHEMBL4004782, “A review on tacrine-based scaffolds as multi-target drugs (MTDLs) for Alzheimer's disease” (Eur J Med Chem, 2017)
